The values below come from patent US11478460B2, “Diaryl substituted 6,5-fused ring compounds as C5aR inhibitors” (CHEMOCENTRYX, INC., priority 2017, dated 2022).

Usually IC50 stands for the concentration that gives 50% inhibition.

A value given as a limit tells only on which side of the number the result lay.

In the experiment the target is C5aR (Homo sapiens (Human), UniProt P21730). In words: Chemotaxis assay using U937 cells (C5aR mediated migration). The following applies: read-out: Mig IC50. It counts as cell-based. In short, it runs like this: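 U937 monocytic cells, pretreated overnight with 0.5 mM cyclic AMP, placed at 100,000 cells in the upper well above 5 μm polycarbonate filters. Lower well held 0.03 nM C5a plus compound in HBSS/1% FBS; after 1.5 h at 37° C migrated cells counted directly or by CyQuant, giving IC50.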
C5aR, sequence (P21730 whole entry): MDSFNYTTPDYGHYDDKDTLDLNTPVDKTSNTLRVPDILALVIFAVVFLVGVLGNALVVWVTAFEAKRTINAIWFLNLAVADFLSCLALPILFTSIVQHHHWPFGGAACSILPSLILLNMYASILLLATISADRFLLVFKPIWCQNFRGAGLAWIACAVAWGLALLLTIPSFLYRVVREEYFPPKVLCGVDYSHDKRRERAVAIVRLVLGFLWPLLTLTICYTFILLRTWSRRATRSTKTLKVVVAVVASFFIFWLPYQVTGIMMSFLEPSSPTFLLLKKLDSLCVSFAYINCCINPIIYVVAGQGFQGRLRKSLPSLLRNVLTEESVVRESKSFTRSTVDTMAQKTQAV
In the case of `Cc1cccc(CCC(C)C)c1-n1nc2c(c1-c1ccc(NC(N)=O)cc1)CN(CC(C)(C)C)CC2` [Example 1.336], the IC50 lay in the range of 5 to 50 nM.

Regarding `Cc1cc(N2CCc3nn(-c4c(C)cccc4OCC(C)C)c(-c4cc(F)c(NC(N)=O)cc4F)c3C2)ncc1Cl` [Example 1.177], the IC50 was at most 5 nM.

Regarding `Cc1ccc(C(C)C)nc1N1CCc2nn(-c3c(C)cccc3OCC(C)C)c(-c3ccc(NC(N)=O)cc3)c2C1` [Example 1.347], the IC50 was at most 5 nM.

As for `Cc1cc(Cl)cnc1N1CCc2nn(-c3c(C)cccc3OCC(C)C)c(-c3cc(F)c(NC(N)=O)cc3F)c2C1` [Example 1.168], the IC50 is at most 5 nM.

`CCc1cccc(CC)c1-n1nc2c(c1-c1cc(F)c(NC(N)=O)cc1F)CN(Cc1ccc(F)cc1C(F)(F)F)C(C)(C)C2` [Example 1.012]: the IC50 was at most 5 nM.

Regarding `CC(C)c1ccccc1-n1nc2c(c1-c1ccc(NC(N)=O)cc1)CN(C(=O)OC(C)(C)C)CC2` [Example 1.416], the IC50 was over 500 nM.

For `CCc1cccc(CC)c1-n1nc2c(c1-c1cc(F)c(NC(N)=O)cc1F)CN(Cc1ccc(C(F)(F)F)cc1C)C(C)(C)C2` [Example 1.047], the IC50 was at most 5 nM.

Consider `Cc1cccc(OCC(C)C)c1-n1nc2c(c1-c1ccc(NC(N)=O)cc1)CN(c1ccccc1C(C)C)CC2` [Example 1.474], for which the IC50 was at most 5 nM.

With `Cc1ccc(N2CCc3nn(-c4c(C)cccc4OCC(C)C)c(-c4ccc(NC(N)=O)cc4)c3C2)c(C(F)(F)F)c1` [Example 1.321], the IC50 was at most 5 nM.

Regarding `Cc1cccc(OCC(C)C)c1-n1nc2c(c1-c1ccc(N)c(F)c1)CN(c1ncc(C(F)(F)F)cc1F)CC2` [Example 1.294], the IC50 lay within 5 to 50 nM.

Turning to `CCc1cccc(CC)c1-n1nc2c(c1-c1cc(F)c(NC(N)=O)cc1F)CN(Cc1cc(OC)ccc1C(F)(F)F)CC2` [Example 1.045], the half-inhibitory concentration (IC50) was at most 5 nM.

As for `Cc1cccc(OCC(C)C)c1-n1nc2c(c1-c1ccc(NC(N)=O)cc1)CN(c1cc(C(C)(C)O)ccc1F)CC2` [Example 1.363], the IC50 was in the range of 50 to 500 nM.

For the molecule `CCc1cccc(CC)c1-n1nc2c(c1-c1cc(F)c(NC(N)=O)cc1F)CN(Cc1cc(F)ccc1F)CC2` [Example 1.046], the IC50 was at most 5 nM.

With `Cc1cccc(C)c1-n1nc2c(c1-c1ccc(N)cc1)CN(c1ccccc1C(C)C)CC2` [Example 1.481], the 50% inhibitory concentration (IC50) lay in the range of 5 to 50 nM.

Regarding `Cc1cccc(OCC(C)C)c1-n1nc2c(c1-c1ccc(NC(N)=O)c(F)c1)CN(C(c1ccccc1)C(F)(F)F)CC2` (centres unmarked) [Example 1.225], the IC50 is at most 5 nM.

As to `Cc1cccc(OCC(C)C)c1-n1nc2c(c1-c1ccc(NC(N)=O)cc1)CN(Cc1cccc(C(C)(C)C)c1)CC2` [Example 1.392], the IC50 fell in the range of 5 to 50 nM.

Consider `CCc1cccc(CC)c1-n1nc2c(c1-c1cc(F)c(NC(N)=O)cc1F)CN(C(C)(C)c1ccc(F)cc1)CC2` [Example 1.192], for which the IC50 was at most 5 nM.

In the case of `Cc1cc(-c2c3c(nn2-c2c(C)cccc2C)CCN(c2ncc(Cl)cc2Cl)C3)c(F)cc1NC(N)=O` [Example 1.097], the IC50 was at most 5 nM.

Regarding `Cc1cccc(C)c1-n1nc2c(c1-c1cc(F)c(NC(N)=O)cc1F)CN(c1ncc(Cl)cn1)CC2` [Example 1.155], the IC50 lay within 5 to 50 nM.

With `NC(=O)Nc1cc(F)c(-c2c3c(nn2-c2ccccc2OC(F)(F)F)CCN(c2ncc(Cl)cc2Cl)C3)cc1F` [Example 1.167], the IC50 is at most 5 nM.

With `Cc1cccc(C)c1-n1nc2c(c1-c1cc(F)c(NC(N)=O)cc1F)CN(CC(C)(C)O)CC2` [Example 1.086], the IC50 was over 500 nM.

Take `Cc1cccc(OCC(C)C)c1-n1nc2c(c1-c1ccc(NC(N)=O)cc1)CN(C(C)c1ccccc1C(F)(F)F)CC2` (centres unmarked) [Example 1.330]: the IC50 is at most 5 nM.

Regarding `Cc1cccc(OCC(C)C)c1-n1nc2c(c1-c1ccc(NC(N)=O)c(F)c1)CN(CC(C)(C)C)CC2` [Example 1.274], the concentration for half-maximal inhibition (IC50) is at most 5 nM.

As to `CCc1cccc(CC)c1-n1nc2c(c1-c1cc(F)c(NC(N)=O)cc1F)CN(CC)C(C)(C)C2` [Example 1.009], the IC50 is 5 to 50 nM.

In the case of `CCc1cccc(CC)c1-n1nc2c(c1-c1cc(F)c(NC(N)=O)cc1F)CN(C(C)(C)C)CC2` [Example 1.204], the IC50 lay within 5 to 50 nM.

On to `CCc1cccc(CC)c1-n1nc2c(c1-c1cc(F)c(NC(N)=O)cc1F)CN(Cc1cnc(C)cc1C)CC2` [Example 1.026], for which the IC50 fell in the range of 5 to 50 nM.

Take `COc1cccc(C)c1-n1nc2c(c1-c1ccc(NC(N)=O)cc1)CN(c1ccccc1C(C)C)CC2` [Example 1.482]: the IC50 is 5 to 50 nM.

With `CCc1cccc(CC)c1-n1nc2c(c1-c1cc(F)c(NC(N)=O)cc1F)CN(C(C)c1ccccc1F)CC2` (centres unmarked) [Example 1.161], the IC50 is at most 5 nM.

For `Cc1cccc(OCC(C)C)c1-n1nc2c(c1-c1ccc(NC(N)=O)c(F)c1)CN(CC1CCOC1)CC2` (centres unmarked) [Example 1.248], the IC50 was in the range of 50 to 500 nM.

Regarding `Cc1cccc(OCC(C)C)c1-n1nc2c(c1-c1ccc(NC(N)=O)cc1)CN(c1ccc(C(F)(F)F)cc1F)CC2` [Example 1.378], the IC50 fell in the range of 5 to 50 nM.

As to `Cc1cccc(C)c1-n1nc2c(c1-c1cc(F)c(NC(N)=O)cc1F)CN(c1ccc(Cl)cc1Cl)CC2` [Example 1.119], the IC50 is at most 5 nM.

With `CCc1cccc(CC)c1-n1nc2c(c1-c1cc(F)c(NC(N)=O)cc1F)CN(C(c1ccccc1)C(C)(C)O)CC2` (centres unmarked) [Example 1.080], the IC50 was at most 5 nM.

For `Cc1cccc(CCC(C)C)c1-n1nc2c(c1-c1ccc(NC(N)=O)cc1)CN(Cc1ccc(C(F)(F)F)cc1C(F)(F)F)CC2` [Example 1.337], the IC50 was in the range of 5 to 50 nM.

`Cc1cccc(C)c1-n1nc2c(c1-c1cc(F)c(NC(N)=O)cc1F)CN(c1ncc(C(C)(C)O)cc1Cl)CC2` [Example 1.104]: the IC50 lay within 50 to 500 nM.

With `CCc1cccc(CC)c1-n1nc2c(c1-c1cc(F)c(NC(N)=O)cc1F)CN(Cc1cn(C)nc1C(F)(F)F)CC2` [Example 1.075], the IC50 lay within 5 to 50 nM.

As to `Cc1ccc(C(C)(C)O)nc1N1CCc2nn(-c3c(C)cccc3OCC(C)C)c(-c3ccc(NC(N)=O)cc3)c2C1` [Example 1.383], the IC50 fell in the range of 50 to 500 nM.

As for `Cc1cccc(OCC(C)C)c1-n1nc2c(c1-c1ccc(NC(N)=O)cc1)CN(Cc1ccc(C(F)(F)F)cc1F)CC2` [Example 1.329], the IC50 is at most 5 nM.

Take `CCc1cccc(CC)c1-n1nc2c(c1-c1cc(F)c(NC(N)=O)cc1F)CN(C(C)c1ccccc1C(F)(F)F)CC2` (centres unmarked) [Example 1.208]: the IC50 is at most 5 nM.

As for `Cc1cccc(OCC(C)C)c1-n1nc2c(c1-c1ccc(NC(N)=O)c(F)c1)CN(c1nccn3ccnc13)CC2` [Example 1.245], the IC50 lay in the range of 5 to 50 nM.

As to `Cc1cccc(OCC(C)C)c1-n1nc2c(c1-c1cc(F)c(NC(N)=O)cc1F)CN(c1ncc(C(F)(F)F)cn1)CC2` [Example 1.164], the IC50 was at most 5 nM.

With `CCc1cccc(CC)c1-n1nc2c(c1-c1cc(F)c(NC(N)=O)cc1F)CN(C(C(N)=O)c1ccccc1)CC2` (centres unmarked) [Example 1.135], the IC50 is over 500 nM.

With `CCc1cccc(CC)c1-n1nc2c(c1-c1cc(F)c(NC(N)=O)cc1F)CN(Cc1ccc(C(F)(F)F)cc1OC)CC2` [Example 1.058], the concentration for half-maximal inhibition (IC50) was at most 5 nM.

`Cc1cccc(OCC(C)C)c1-n1nc2c(c1-c1ccc(NC(N)=O)cc1)CN(CC1(C(F)(F)F)CCCC1)CC2` [Example 1.366]: the IC50 is 5 to 50 nM.

With `CCc1cccc(CC)c1-n1nc2c(c1-c1ccc(NC(N)=O)c(F)c1)CN(C(C)C1CCCC1)CC2` (centres unmarked) [Example 1.216], the IC50 was in the range of 5 to 50 nM.
